The assay concerns HCV genotype 1b replicon in Huh 7 cells (HCV 1b_Huh-Luc/Neo-ET cell line). In words: HCV replicon assay (luciferase readout). The format is cell-based. To be noted: Hepatitis C virus, Huh-7; Table 1; EC50 range class; replicon luciferase, 72 h incubation, average EC50; read-out: Inhibition of HCV genotype 1b. How it is done:
Biological activity of the compounds of the invention was determined using an HCV replicon assay. The HCV 1b_Huh-Luc/Neo-ET cell line persistently expressing a bicistronic genotype 1b replicon in Huh 7 cells was obtained from ReBLikon GMBH. This cell line was used to test compound inhibition using luciferase enzyme activity readout as a measurement of compound inhibition of replicon levels.
On Day 1 (the day after plating cells), each compound is added in triplicate to the cells. Plates are incubated for 72 h prior to determining luciferase levels. Enzyme activity was measured using a Bright-Glo Kit (cat. number E2620) manufactured by Promega Corporation. The following equation was used to generate a percent control value for each compound. % Control=(Compound Luciferase Level/Control Luciferase Level)*100
The EC50 value was determined using GraphPad Prism and the following equation: Y=Bottom asymptote+(Top asymptote−Bottom asymptote)/(1+10^((Log EC50−X)*HillSlope))
EC50 values of compounds are determined several times in the replicon assay to generate average EC50 values.
On the technique in general: In antiviral work, replicon cells carry a viral genome segment that copies itself.
With `COCCOc1cc(-c2cnc([C@@H]3CCCN3C(=O)[C@@H](NC(=O)OC)C(C)C)[nH]2)ccc1-c1ccc(-c2cnc([C@@H]3CCCN3C(=O)[C@@H](NC(=O)OC)C(C)C)[nH]2)cc1OCCOC` [Compound 1], the EC50 was below 1 nM. The result for `COCCOc1c(-c2ccc(-c3cnc([C@@H]4CCCN4C(=O)[C@@H](NC(=O)OC)C(C)C)[nH]3)cc2)ccc(-c2cnc([C@@H]3CCCN3C(=O)[C@@H](NC(=O)OC)C(C)C)[nH]2)c1OCCOC` [Compound 2] reads below 1 nM. The result for `CC[C@H](C)C(NC(=O)OC)C(=O)N1CCC[C@H]1c1ncc(-c2ccc(-c3ccc(-c4cnc([C@@H]5CCCN5C(=O)[C@@H](NC(=O)OC)[C@@H](C)CC)[nH]4)c(OCCOC)c3OCCOC)cc2)[nH]1` (stereo partly drawn) [Compound 3] reads below 1 nM; that for `COCCOc1c(-c2ccc(-c3cnc([C@@H]4CCCN4C(=O)[C@@H](NC(=O)OC)C4CCCC4)[nH]3)cc2)ccc(-c2cnc([C@@H]3CCCN3C(=O)[C@@H](NC(=O)OC)C3CCCC3)[nH]2)c1OCCOC` [Compound 4], below 1 nM; that for `COCCOc1cc(-c2cnc([C@@H]3CCCN3C(=O)[C@H](C)NC(=O)OC)[nH]2)ccc1-c1ccc(-c2cnc([C@@H]3CCCN3C(=O)[C@H](C)NC(=O)OC)[nH]2)cc1OCCOC` [Compound 6], 10 to 999 nM. The result for `CC[C@H](C)C(NC(=O)OC)C(=O)N1CCC[C@H]1c1ncc(-c2ccc(-c3ccc(-c4cnc([C@@H]5CCCN5C(=O)C(NC(=O)OC)[C@@H](C)CC)[nH]4)cc3OCCOC)c(OCCOC)c2)[nH]1` (stereo partly drawn) [Compound 7] reads below 1 nM; that for `COCCOc1cc(-c2cnc([C@@H]3CCCN3C(=O)[C@@H](NC(=O)OC)C3CCCC3)[nH]2)ccc1-c1ccc(-c2cnc([C@@H]3CCCN3C(=O)[C@@H](NC(=O)OC)C3CCCC3)[nH]2)cc1OCCOC` [Compound 8], below 1 nM. Regarding `COCCOc1cc(-c2cnc([C@@H]3CCCN3C(=O)[C@@H](NC(=O)OC)C3CCCCC3)[nH]2)ccc1-c1ccc(-c2cnc([C@@H]3CCCN3C(=O)[C@@H](NC(=O)OC)C3CCCCC3)[nH]2)cc1OCCOC` [Compound 9], the EC50 is below 1 nM.

For the compound `COCCOc1c(-c2ccc(-c3cnc([C@@H]4CCCN4C(=O)[C@H](C)NC(=O)OC)[nH]3)cc2)ccc(-c2cnc([C@@H]3CCCN3C(=O)[C@H](C)NC(=O)OC)[nH]2)c1OCCOC` [Compound 10], the EC50 is below 1 nM.

For the compound `COCCOc1c(-c2ccc(-c3cnc([C@@H]4CCCN4C(=O)C(NC(=O)OC)[C@@H](C)OC)[nH]3)cc2)ccc(-c2cnc([C@@H]3CCCN3C(=O)C(NC(=O)OC)[C@@H](C)OC)[nH]2)c1OCCOC` (stereo partly drawn) [Compound 12], the EC50 is 1 to 9.9 nM.

Consider `COCCOc1c(-c2ccc(-c3cnc([C@@H]4CCCN4C(=O)[C@@H](NC(=O)OC)C(C)(C)C)[nH]3)cc2)ccc(-c2cnc([C@@H]3CCCN3C(=O)[C@@H](NC(=O)OC)C(C)(C)C)[nH]2)c1OCCOC` [Compound 13], for which the EC50 was in the range of 1 to 9.9 nM.

Regarding `COCCOc1c(-c2ccc(-c3cnc([C@@H]4CCCN4C(=O)[C@@H](NC(=O)OC)C4CCOCC4)[nH]3)cc2)ccc(-c2cnc([C@@H]3CCCN3C(=O)[C@@H](NC(=O)OC)C3CCOCC3)[nH]2)c1OCCOC` [Compound 14], the EC50 lay in the range of 1 to 9.9 nM.

With `COCCOc1c(-c2ccc(-c3cnc([C@@H]4CCCN4C(=O)[C@@H](c4ccccc4)N(C)C)[nH]3)cc2)ccc(-c2cnc([C@@H]3CCCN3C(=O)[C@@H](c3ccccc3)N(C)C)[nH]2)c1OCCOC` [Compound 15], the EC50 is below 1 nM. As for `COCCOc1c(-c2ccc(-c3cnc([C@@H]4CCCN4C(=O)[C@@H](c4ccccc4)N4CCCC4)[nH]3)cc2)ccc(-c2cnc([C@@H]3CCCN3C(=O)[C@@H](c3ccccc3)N3CCCC3)[nH]2)c1OCCOC` [Compound 16], the figure is 1 to 9.9 nM; as for `COCCOc1c(-c2ccc(-c3cnc([C@@H]4CCCN4C(=O)[C@H](NS(C)(=O)=O)c4ccccc4)[nH]3)cc2)ccc(-c2cnc([C@@H]3CCCN3C(=O)[C@H](NS(C)(=O)=O)c3ccccc3)[nH]2)c1OCCOC` [Compound 17], below 1 nM.

`COCCOc1c(-c2ccc(-c3cnc([C@@H]4CCCN4C(=O)[C@H](NC(=O)OC)C(C)C)[nH]3)cc2)ccc(-c2cnc([C@@H]3CCCN3C(=O)[C@H](C)NC(=O)OC)[nH]2)c1OCCOC` [Compound 18]: the EC50 was in the range of 1 to 9.9 nM.

For the compound `CC[C@H](C)[C@H](NC(=O)OC)C(=O)N1CCC[C@H]1c1ncc(-c2ccc(-c3ccc(-c4cnc([C@@H]5CCCN5C(=O)[C@@H](NC(=O)OC)C(C)C)[nH]4)cc3)c(OCCOC)c2OCCOC)[nH]1` [Compound 19], the EC50 is below 1 nM. As for `COCCOc1c(-c2ccc(-c3cnc([C@@H]4CCCN4C(=O)[C@H](NC(=O)OC)c4ccccc4)[nH]3)cc2)ccc(-c2cnc([C@@H]3CCCN3C(=O)[C@H](NC(=O)OC)c3ccccc3)[nH]2)c1OCCOC` [Compound 20], the figure is below 1 nM; as for `COCCOc1c(-c2ccc(-c3cnc([C@@H]4CCCN4C(=O)[C@H](NC(=O)OC)c4ccsc4)[nH]3)cc2)ccc(-c2cnc([C@@H]3CCCN3C(=O)[C@H](NC(=O)OC)c3ccsc3)[nH]2)c1OCCOC` [Compound 21], below 1 nM; as for `COCCOc1c(-c2ccc(-c3cnc([C@@H]4CCCN4C(=O)[C@H](NC(=O)OC)c4cccs4)[nH]3)cc2)ccc(-c2cnc([C@@H]3CCCN3C(=O)[C@H](NC(=O)OC)c3cccs3)[nH]2)c1OCCOC` [Compound 22], below 1 nM. As for `COCCOc1c(-c2ccc(-c3cnc([C@@H]4CCCN4C(=O)[C@H](NC(C)=O)c4ccccc4)[nH]3)cc2)ccc(-c2cnc([C@@H]3CCCN3C(=O)[C@H](NC(C)=O)c3ccccc3)[nH]2)c1OCCOC` [Compound 23], the figure is below 1 nM; as for `CNC(=O)N[C@@H](C(=O)N1CCC[C@H]1c1ncc(-c2ccc(-c3ccc(-c4cnc([C@@H]5CCCN5C(=O)[C@H](NC(=O)NC)c5ccccc5)[nH]4)c(OCCOC)c3OCCOC)cc2)[nH]1)c1ccccc1` [Compound 24], below 1 nM; as for `COCCOc1cc(-c2cnc([C@@H]3CCCN3C(=O)C(NC(=O)OC)[C@@H](C)OC)[nH]2)ccc1-c1ccc(-c2cnc([C@@H]3CCCN3C(=O)C(NC(=O)OC)[C@@H](C)OC)[nH]2)cc1OCCOC` (stereo partly drawn) [Compound 25], 1 to 9.9 nM. As for `COCCOc1cc(-c2cnc([C@@H]3CCCN3C(=O)[C@H](NC(=O)OC)c3ccccc3)[nH]2)ccc1-c1ccc(-c2cnc([C@@H]3CCCN3C(=O)[C@H](NC(=O)OC)c3ccccc3)[nH]2)cc1OCCOC` [Compound 26], the figure is below 1 nM; as for `COCCOc1c(-c2ccc(-c3cnc([C@@H]4CCCN4C(=O)[C@@H](NC(=O)OC)C(C)C)[nH]3)cc2)ccc(-c2cnc([C@@H]3CCCN3C(=O)[C@H](COC)NC(=O)OC)[nH]2)c1OCCOC` [Compound 27], below 1 nM. Regarding `COCCOc1c(-c2ccc(-c3cnc([C@@H]4CCCN4C(=O)[C@@H](NC(=O)OC)C(C)C)[nH]3)cc2)ccc(-c2cnc([C@@H]3CCCN3C(=O)[C@@H](NC(=O)OC)[C@@H](C)OC)[nH]2)c1OCCOC` [Compound 28], the EC50 was below 1 nM. As for `COCCOc1c(-c2ccc(-c3cnc([C@@H]4CCCN4C(=O)[C@@H](NC(=O)OC)C(C)C)[nH]3)cc2)ccc(-c2cnc([C@@H]3CCCN3C(=O)[C@@H](NC(=O)OC)C3CCCC3)[nH]2)c1OCCOC` [Compound 29], the figure is below 1 nM; as for `COCCOc1c(-c2ccc(-c3cnc([C@@H]4CCCN4C(=O)[C@@H](NC(=O)OC)C(C)C)[nH]3)cc2)ccc(-c2cnc([C@@H]3CCCN3C(=O)[C@H](NC(=O)OC)c3ccccc3)[nH]2)c1OCCOC` [Compound 30], below 1 nM; as for `COCCOc1c(-c2ccc(-c3cnc([C@@H]4CCCN4C(=O)[C@@H](NC(=O)OC)C(C)C)[nH]3)cc2)ccc(-c2cnc([C@@H]3CCCN3C(=O)[C@H](NC(=O)OC)c3ccsc3)[nH]2)c1OCCOC` [Compound 31], below 1 nM. The result for `COCCOc1c(-c2ccc(-c3cnc([C@@H]4CCCN4C(=O)[C@@H](NC(=O)OC)C(C)C)[nH]3)cc2)ccc(-c2cnc([C@@H]3CCCN3C(=O)[C@H](NC(=O)OC)c3cccs3)[nH]2)c1OCCOC` [Compound 32] reads below 1 nM; that for `COCCOc1c(-c2ccc(-c3cnc([C@@H]4CCCN4C(=O)[C@@H](NC(=O)OC)C(C)C)[nH]3)cc2)ccc(-c2cnc([C@@H]3CCCN3C(=O)[C@@H](c3ccccc3)N(C)C)[nH]2)c1OCCOC` [Compound 33], below 1 nM; that for `COCCOc1cc(-c2cnc([C@@H]3CCCN3C(=O)[C@@H](NC(=O)OC)C(C)C)[nH]2)ccc1-c1ccc(-c2cnc([C@@H]3CCCN3C(=O)[C@@H](NC(=O)OC)[C@@H](C)OC)[nH]2)cc1OCCOC` [Compound 34], 1 to 9.9 nM. As for `CC[C@H](C)[C@H](NC(=O)OC)C(=O)N1CCC[C@H]1c1ncc(-c2ccc(-c3ccc(-c4cnc([C@@H]5CCCN5C(=O)[C@@H](NC(=O)OC)C(C)C)[nH]4)cc3OCCOC)c(OCCOC)c2)[nH]1` [Compound 35], the figure is below 1 nM. In the case of `COCCOc1cc(-c2cnc([C@@H]3CCCN3C(=O)[C@@H](NC(=O)OC)C(C)C)[nH]2)ccc1-c1ccc(-c2cnc([C@@H]3CCCN3C(=O)[C@@H](NC(=O)OC)C3CCCC3)[nH]2)cc1OCCOC` [Compound 36], the EC50 was below 1 nM. Consider `COCCOc1cc(-c2cnc([C@@H]3CCCN3C(=O)[C@@H](NC(=O)OC)C(C)C)[nH]2)ccc1-c1ccc(-c2cnc([C@@H]3CCCN3C(=O)[C@H](NC(=O)OC)c3ccccc3)[nH]2)cc1OCCOC` [Compound 37], for which the EC50 was below 1 nM. The result for `COCCOc1cc(-c2cnc([C@@H]3CCCN3C(=O)[C@@H](NC(=O)OC)C(C)C)[nH]2)ccc1-c1ccc(-c2cnc([C@@H]3CCCN3C(=O)[C@@H](c3ccccc3)N3CCCC3)[nH]2)cc1OCCOC` [Compound 38] reads 1 to 9.9 nM.

For the origin of these results see patent US8822520B2, “Substituted bicyclic HCV inhibitors” (Presidio Pharmaceuticals, Inc., priority 2010, dated 2014).
